{
  "source": "patent US20240033282A1",
  "about": "“METHOD FOR IDENTIFYING AND/OR FOR OBTAINING AN ACTIVE SUBSTANCE FOR THE TREATMENT AND THERAPY OF FAMILIAL AMYOTROPHIC LATERAL SCLEROSIS, AND USE OF AN ACTIVE SUBSTANCE FOR THE TREATMENT OF THIS DISEASE” (Forschungszentrum Juelich GmbH, priority 2020, published 2024)",
  "key": {"[1]": {"test_system": "uptake of SOD1 aggregates into neuro-2a cells", "assay": "flow cytometric determination of the uptake of fluorescently labeled SOD1 aggregates into neuro-2a cells", "type": "cell-based", "conditions": "for uptake of fluorescently labeled SOD1 aggregates after treatment with endocytosis inhibitors: flow cytometry, FIG. 3"}, "prion diseases": {"test_system": "prion diseases", "conditions": "in vivo; cited from earlier work"}, "ALS": {"test_system": "ALS", "conditions": "clinical studies, compared to placebo, some individuals; cited from earlier work"}, "[2]": {"test_system": "uptake of SOD1 aggregates into primary cortical neurons", "assay": "flow cytometric determination of the uptake of fluorescently labeled SOD1 aggregates into primary cortical neurons", "type": "cell-based", "conditions": "primary cortical neurons of wild-type mice, treated as for neuro-2a cells, FIG. 7A", "method": "In order to investigate whether the results in neuro-2a cells can be expanded to primary cortical neurons, isolated, cultured and treated primary cortical neurons of wild-type mice were treated with heparinase and chondroitinase as previously for neuro-2a cells, before they were exposed to DyLight 488-labeled SOD1 aggregates (FIG. 7A). Likewise, the uptake of SOD1 aggregates after blocking with heparin was tested, as previously carried out for neuro-2a cells (FIG. 7A). The uptake of SOD1 aggregates was again quantified by flow cytometry. […] The “***” or “****” above the bars indicate the statistical significance of the results. “***” corresponds to a significance with p≤0.001 and “****” corresponds to a significance with p≤0.0001 in comparison to the control."}},
  "data": [
    {"molecule": "pentosan polysulfate sodium [PPS]", "values": [
      {"measurement": "cellular uptake of fluorescently labeled wild-type and mutated SOD1 aggregates after PPS treatment", "setting": "[1]; neuro-2a cells, increasing PPS concentrations, FIG. 5", "result": "competitively inhibited the cellular uptake of fluorescently labeled wild-type and mutated SOD1 aggregates at non-cytotoxic concentrations"},
      {"measurement": "survival of infected animals", "setting": "prion diseases", "result": "extending the survival of infected animals after intracerebroventricular perfusion in a dose-dependent manner"}
    ]},
    {"molecule": "O=C(N/N=C/c1ccc(O)c(O)c1)c1cc2ccccc2cc1O", "note": "[dynasore]", "values": [
      {"measurement": "uptake of fluorescently labeled SOD1 aggregates after treatment with endocytosis inhibitors", "setting": "[1]; neuro-2a cells", "result": "inhibited the uptake of SOD1 aggregates"}
    ]},
    {"molecule": "Oc1ccc2ccccc2c1SSc1c(O)ccc2ccccc12", "note": "[IPA-3, 2,2′-dihydroxy-1,1′-dinaphthyl disulfide]", "values": [
      {"measurement": "uptake of fluorescently labeled SOD1 aggregates after treatment with endocytosis inhibitors", "setting": "[1]; neuro-2a cells", "result": "reduced the uptake of SOD1 aggregates significantly"}
    ]},
    {"molecule": "[Na+].[O-][Cl+2]([O-])[O-]", "note": "[sodium chlorate]", "values": [
      {"measurement": "uptake of SOD1 aggregates after sodium chlorate treatment", "setting": "[1]", "result": "reduced the uptake of SOD1 aggregates in a dose-dependent manner"}
    ]},
    {"molecule": "O=c1c(-c2ccc(O)cc2)coc2cc(O)cc(O)c12", "note": "[genistein, Genistein]", "values": [
      {"measurement": "uptake of fluorescently labeled SOD1 aggregates after treatment with endocytosis inhibitors", "setting": "[1]; neuro-2a cells", "result": "Neither the chloropromazine treatment nor the genistein treatment inhibited the uptake of SOD1 aggregates significantly"}
    ]},
    {"molecule": "CC1=NN(c2ccccc2)C(=O)C1", "note": "[Radicava, edaravone]", "values": [
      {"measurement": "decrease in bodily function measured by ALSFRS-R", "setting": "ALS", "result": "significantly lower decrease in bodily function compared to placebo"}
    ]},
    {"molecule": "C=C1[C@@H](C)[C@H]2[C@H](Cc3ccccc3)NC(=O)[C@]23[C@H](OC(C)=O)/C=C/[C@@](C)(O)C(=O)[C@@H](C)C/C=C/[C@H]3[C@@H]1O", "note": "[cytochalasin D]", "values": [
      {"measurement": "uptake of fluorescently labeled SOD1 aggregates after treatment with endocytosis inhibitors", "setting": "[1]; neuro-2a cells", "result": "significantly inhibited the uptake"}
    ]},
    {"molecule": "methyl-β-cyclodextrin", "values": [
      {"measurement": "uptake of fluorescently labeled SOD1 aggregates after treatment with endocytosis inhibitors", "setting": "[1]; neuro-2a cells", "result": "significantly reduced the uptake of SOD1 aggregates"}
    ]},
    {"molecule": "CCN(c1nc(N)c(C(=O)N=C(N)N)nc1Cl)C(C)C", "note": "[EIPA, 5-N-ethyl-N-isopropyl amiloride]", "values": [
      {"measurement": "uptake of fluorescently labeled SOD1 aggregates after treatment with endocytosis inhibitors", "setting": "[1]; neuro-2a cells", "result": "reduced the uptake of SOD1 aggregates significantly"}
    ]},
    {"molecule": "heparin", "values": [
      {"measurement": "uptake of SOD1 aggregates pre-treated with heparin", "setting": "[1]; aggregates treated at 4° C. with 1 mg/mL heparin for 6 hours, neuro-2a cells incubated 6 hours, FIG. 4B", "result": "inhibited the uptake of both wild-type and mutated SOD1 aggregates"},
      {"measurement": "uptake of DyLight 488-labeled SOD1 aggregates into primary cortical neurons", "setting": "[2]", "result": "inhibits uptake of SOD1 aggregates into primary cortical neurons"}
    ]},
    {"molecule": "CN(C)CCCN1c2ccccc2Sc2ccc(Cl)cc21", "note": "[chloropromazine, Chlorpromazine]", "values": [
      {"measurement": "uptake of fluorescently labeled SOD1 aggregates after treatment with endocytosis inhibitors", "setting": "[1]; neuro-2a cells", "result": "Neither the chloropromazine treatment nor the genistein treatment inhibited the uptake of SOD1 aggregates significantly"}
    ]}
  ]
}
